Results reported in ChEMBL document CHEMBL1150181, “Chemistry of Sponges, VIII. Anomoian A, a Bromotyrosine Derivative from Anomoiantbella popeae” (J Nat Prod, 1990).
Calls of active or inactive are those of the source.

Key:
Assay type in all cases: functional, organism-based
[1] = system: Candida albicans; test: Antimicrobial activity against Candida albicans at 25 ug/disk
[2] = system: Staphylococcus aureus; test: Antimicrobial activity against Staphylococcus aureus at 10 ug/disk
[3] = system: Bacillus subtilis; test: Antimicrobial activity against Bacillus subtilis at 5 ug/disk

Measured: Activity

CNC(Cc1cc(Br)c(OC)c(Br)c1)C(=O)NCCCOc1c(Br)cc(CCN(C)C)cc1Br (stereo not drawn)
active: all assays above
